# Results published in patent publication US8497380B2, “Substituted acetophenones useful as PDE4 inhibitors” (Leo Pharma A/S, priority 2006, dated 2013).
# Tested on: Human peripheral blood mononuclear cells (PBMC)
# Experiment: TNFalfa-Release
# Assay type: cell-based
# Settings: inhibition of TNF-a secretion, PBMC pre-incubated 30 minutes, stimulated 18 hours with lipopolysaccharide
# Method: Human peripheral blood mononuclear cells (PBMC) are Isolated from buffy coats. The blood is mixed with saline at a ratio of 1:1, and the PBMC is isolated by the use of Lymphoprep Tubes™ (Nycomed, Norway). The PBMC is suspended in RPMI1640 with 2% foetal calf serum (FCS), pen/strep and 2 mM L-glutamine at a concentration of 5×105 c/ml. The cells are pre-incubated for 30 minutes with the test compounds in 96 well tissue culture plates and stimulated for 18 hours with lipopolysaccharide 1 mg/ml (Sigma). The level of TNF-a is measured in the culture supernatant by enzyme immuno assays using primary and secondary biotinylated antibodies from R&D systems. Results are expressed as pIC50 values calculated from inhibition curves using as positive controls the secretion in LPS stimulated wells and as negative controls the secretion in unstimulated cells.
row,Compound,IC50 [nM]
1,"CCOc1c(OC)ccc(C(=O)Cc2c(Cl)cncc2Cl)c1OCC(=O)OCc1ccccc1 [Compound 265, {6-[2-(3,5-Dichloro-pyridin-4-yl)-acetyl]-2-ethoxy-3-methoxy-phenoxy}-acetic acid benzyl ester]",< 1000
2,"COc1ccc(C(=O)Cc2c(Cl)cncc2Cl)c(OCc2cccc(Cl)c2)c1OC [Compound 144, 1-[2-(3-Chloro-benzyloxy)-3,4-dimethoxy-phenyl]-2-(3,5-dichloro-pyridin-4-yl)-ethanone]",< 1000
3,"COc1ccc(C(=O)Cc2c(Cl)cncc2Cl)c(OCC(=O)NCc2cccc(Cl)c2)c1OC [Compound 246, N-(3-Chloro-benzyl)-2-{6-(2-(3,5-dichloro-pyridin-4-yl)-acetyl)-2,3-dimethoxy-phenoxy}-acetamide]",< 1000
4,"CCCCCOc1c(C(=O)Cc2c(Cl)cncc2Cl)ccc(OC)c1OC [Compound 150, 2-(3,5-Dichloro-pyridin-4-yl)-1-(3,4-dimethoxy-2-pentyloxy-phenyl)-ethanone]",< 1000
5,"COc1ccc(C(=O)Cc2c(Cl)cncc2Cl)c(OCCc2ccc(S(C)(=O)=O)cc2)c1OC [Compound 282, 2-(3,5-Dichloro-pyridin-4-yl)-1-{2-[2-(4-methanesulfonyl-phenyl)-ethoxy]-3,4-dimethoxy-phenyl}-ethanone]",< 1000
6,"CCCNC(=O)COc1c(C(=O)Cc2ccncc2)ccc(OC)c1OC [Compound 289, 2-(2,3-Dimethoxy-6-(2-pyridin-4-yl-acetyl)-phenoxy)-N-propyl-acetamide]",< 1000
7,"COc1ccc(C(=O)Cc2c(Cl)c[n+]([O-])cc2Cl)c(OCC(=O)NCc2ccccc2)c1OC [Compound 270, N-Benzyl-2-{6-[2-(3,5-dichloro-1-oxy-pyridin-4-yl)-acetyl]-2,3-dimethoxy-phenoxy}-acetamide]",< 1000
8,"COc1ccc(C(=O)Cc2c(Cl)cncc2Cl)c(OCc2c(F)cccc2C(F)(F)F)c1OC [Compound 170, 2-(3,5-Dichloro-pyridin-4-yl)-1-[2-(2-fluoro-6-trifluoromethyl-benzyloxy)-3,4-dimethoxy-phenyl]-ethanone]",< 1000
9,"CCOc1c(OC)ccc(C(=O)Cc2c(Cl)cncc2Cl)c1OCC [Compound 104, 2-(3,5-Dichloro-pyridin-4-yl)-1-(2,3-diethoxy-4-methoxy-phenyl)-ethanone]",< 1000
10,"COc1ccc(C(=O)Cc2c(Cl)cncc2Cl)c(OCC(C)C)c1OC [Compound 141, 2-(3,5-Dichloro-pyridin-4-yl)-1-(2-isobutoxy-3,4-dimethoxy-phenyl)-ethanone]",< 1000
11,"COc1ccc(C(=O)Cc2c(Cl)cncc2Cl)c(OCc2ccc(Cl)s2)c1OC [Compound 121, 1-[2-(5-Chloro-thiophen-2-ylmethoxy)-3,4-dimethoxy-phenyl]-2-(3,5-dichloro-pyridin-4-yl)-ethanone]",< 1000
12,"COc1ccc(C(=O)Cc2c(Cl)cncc2Cl)c(OCC(=O)NCCCOC(C)C)c1OC [Compound 227, 2-{6-[2-(3,5-Dichloro-pyridin-4-yl)-acetyl]-2,3-dimethoxy-phenoxy}-N-(3-isopropoxy-propyl)-acetamide]",< 1000
13,"COc1ccc(C(=O)Cc2c(Cl)cncc2Cl)c(OCCCOCc2ccccc2)c1OC [Compound 183, 1-[2-(3-Benzyloxy-propoxy)-3,4-dimethoxy-phenyl]-2-(3,5-dichloro-pyridin-4-yl)-ethanone]",< 1000
14,"COc1ccc(C(=O)Cc2c(Cl)cncc2Cl)c(OCC(=O)N2CCCC2)c1OC [Compound 202, 2-(3,5-Dichloro-pyridin-4-yl)-1-[3,4-dimethoxy-2-(2-oxo-2-pyrrolidin-1-yl-ethoxy)-phenyl]-ethanone]",< 1000
15,"COc1ccc(C(=O)Cc2c(Cl)cncc2Cl)c(OCc2cccc(C(F)(F)F)c2)c1OC [Compound 162, 2-(3,5-Dichloro-pyridin-4-yl)-1-[3,4-dimethoxy-2-(3-trifluoromethyl-benzyloxy)-phenyl]-ethanone]",< 1000
16,"COc1ccc(C(=O)Cc2c(Cl)cncc2Cl)c(OCC(=O)NCc2ccco2)c1OC [Compound 228, 2-{6-[2-(3,5-Dichloro-pyridin-4-yl)-acetyl]-2,3-dimethoxy-phenoxy}-N-furan-2-ylmethyl-acetamide]",< 1000
17,"CC#CCOc1c(C(=O)Cc2c(Cl)cncc2Cl)ccc(OC)c1OC [Compound 110, 1-(2-But-2-ynyloxy-3,4-dimethoxy-phenyl)-2-(3,5-dichloro-pyridin-4-yl)-ethanone]",< 1000
18,"COc1ccccc1CNC(=O)COc1c(C(=O)Cc2c(Cl)cncc2Cl)ccc(OC)c1OC [Compound 218, 2-{6-[2-(3,5-Dichloro-pyridin-4-yl)-acetyl]-2,3-dimethoxy-phenoxy}-N-(2-methoxy-benzyl)-acetamide]",< 1000
19,"CCCNC(=O)COc1c(C(=O)Cc2c(Cl)cccc2Cl)ccc(OC)c1OC [Compound 288, 2-{6-[2-(2,6-Dichloro-phenyl)-acetyl]-2,3-dimethoxy-phenoxy}-N-propyl-acetamide]",< 1000

row,Compound,IC50 [nM]
1,"COc1ccc(C(=O)Cc2c(Cl)cncc2Cl)c(OCC(=O)NC2CCCC2)c1OC [Compound 211, N-Cyclopentyl-2-{6-[2-(3,5-dichloro-pyridin-4-yl)-acetyl]-2,3-dimethoxy-phenoxy}-acetamide]",< 1000
2,"COc1ccc(C(=O)Cc2c(Cl)cncc2Cl)c(O)c1OC1CCCC1 [Compound 260, 1-(3-Cyclopentyloxy-2-hydroxy-4-methoxy-phenyl)-2-(3,5-dichloro-pyridin-4-yl)-ethanone]",< 1000
3,"CCCCOc1c(C(=O)Cc2c(Cl)cncc2Cl)ccc(OC)c1OC [Compound 140, 1-(2-Butoxy-3,4-dimethoxy-phenyl)-2-(3,5-dichloro-pyridin-4-yl)-ethanone]",< 1000
4,"C=CCOc1c(OC)ccc(C(=O)Cc2c(Cl)cncc2Cl)c1OCC=C [Compound 106, 1-(2,3-Bis-allyloxy-4-methoxy-phenyl)-2-(3,5-dichloro-pyridin-4-yl)-ethanone]",< 1000
5,"COc1ccc(C(=O)Cc2c(Cl)c[n+]([O-])cc2Cl)c(OCCc2ccccc2)c1OC [Compound 271, 2-(3,5-Dichloro-1-oxy-pyridin-4-yl)-1-(3,4-dimethoxy-2-phenethyloxy-phenyl)-ethanone]",< 1000
6,"COc1ccc(C(=O)Cc2c(Cl)cncc2Cl)c(OCc2ccc(C)cc2)c1OC [Compound 143, 2-(3,5-Dichloro-pyridin-4-yl)-1-[3,4-dimethoxy-2-(4-methyl-benzyloxy)-phenyl]-ethanone]",< 1000
7,"COc1ccc(C(=O)Cc2c(Cl)cncc2Cl)c(OCCc2ccc(C)cc2)c1OC [Compound 123, 2-(3,5-Dichloro-pyridin-4-yl)-1-[3,4-dimethoxy-2-(2-p-tolyl-ethoxy)-phenyl]-ethanone]",< 1000
8,"COC(=O)c1cccc(COc2c(C(=O)Cc3c(Cl)cncc3Cl)ccc(OC)c2OC)c1 [Compound 134, 3-{6-[2-(3,5-Dichloro-pyridin-4-yl)-acetyl]-2,3-dimethoxy-phenoxymethyl}-benzoic acid methyl ester]",< 1000
9,"COc1ccc(C(=O)Cc2c(Cl)cncc2Cl)c(OCCc2ccccc2)c1OC [Compound 112, 2-(3,5-Dichloro-pyridin-4-yl)-1-(3,4-dimethoxy-2-phenethyloxy-phenyl)-ethanone]",< 1000
10,"COc1ccc(C(=O)Cc2c(Cl)cncc2Cl)c(OCc2cc(C)on2)c1OC [Compound 108, 2-(3,5-Dichloro-pyridin-4-yl)-1-[3,4-dimethoxy-2-(5-methyl-isoxazol-3-ylmethoxy)-phenyl]-ethanone]",< 1000
11,"C=CCOc1c(C(=O)Cc2c(Cl)cncc2Cl)ccc(OC)c1OC [Compound 114, 1-(2-Allyloxy-3,4-dimethoxy-phenyl)-2-(3,5-dichloro-pyridin-4-yl)-ethanone]",< 1000
12,"COc1ccc(C(=O)Cc2c(Cl)cncc2Cl)c(OCCc2ccc(Cl)cc2)c1OC [Compound 120, 1-{2-[2-(4-Chloro-phenyl)-ethoxy]-3,4-dimethoxy-phenyl}-2-(3,5-dichloro-pyridin-4-yl)-ethanone]",< 1000
13,"COc1cccc(CCOc2c(C(=O)Cc3c(Cl)cncc3Cl)ccc(OC)c2OC)c1 [Compound 125, 2-(3,5-Dichloro-pyridin-4-yl)-1-{3,4-dimethoxy-2-[2-(3-methoxy-phenyl)-ethoxy]-phenyl}-ethanone]",< 1000
14,"COc1ccc(C(=O)Cc2c(Cl)cncc2Cl)c(OCC(=O)NCc2ccc(Cl)cc2)c1OC [Compound 248, N-(4-Chloro-benzyl)-2-{6-[2-(3,5-dichloro-pyridin-4-yl)-acetyl]-2,3-dimethoxy-phenoxy}-acetamide]",< 1000
15,"COc1ccc(C(=O)Cc2c(Cl)cncc2Cl)c(OCc2ncon2)c1OC [Compound 118, 2-(3,5-Dichloro-pyridin-4-yl)-1-[3,4-dimethoxy-2-([1,2,4]oxadiazol-3-ylmethoxy)-phenyl]-ethanone]",< 1000
16,"COc1ccc(C(=O)Cc2c(Cl)cncc2Cl)c(OCC(=O)NCc2cc(F)cc(F)c2)c1OC [Compound 234, 2-{6-[2-(3,5-Dichloro-pyridin-4-yl)-acetyl]-2,3-dimethoxy-phenoxy}-N-(3,5-difluoro-benzyl)-acetamide]",< 1000
17,"COCCNC(=O)COc1c(C(=O)Cc2c(Cl)cncc2Cl)ccc(OC)c1OC [Compound 223, 2-{6-(2-(3,5-Dichloro-pyridin-4-yl)-acetyl)-2,3-dimethoxy-phenoxy}-N-(2-methoxy-ethyl)-acetamide]",< 1000
18,"COc1ccc(C(=O)Cc2c(Cl)cncc2Cl)c(OCCCc2ccccc2)c1OC [Compound 124, 2-(3,5-Dichloro-pyridin-4-yl)-1-[3,4-dimethoxy-2-(3-phenyl-propoxy)-phenyl]-ethanone]",< 1000
